Tests used:
[1] = test system: PC6 plasma cell tumour; assay: Tumour photo-necrosis: depth of tumour necrosis after sensitiser injection and 10 J cm^-2 light; format: in vivo, female BALB/c mice; details: mean ± SE
Description: (§1) the method of testing is that the PC6 plasma cell tumour, obtained initially from the Chester Beatty Research Institute, was grown by inoculating 0.3-0.6×10^6 cells subcutaneously in female BALB/c mice. It was used about two weeks later, when it was […] in its longest diameter and […] deep. Sensitisers were injected in dimethyl sulphoxide intra-peritoneally (2.5 ul g^-1) and, twenty four hours later, skin over the tumours was depilated, the mice anaesthetised and tumours exposed to 10 J cm^-2 light. Wavelengths for illumination were the longest wavelength absorption peaks in the red in solutions of sensitiser in fetal calf serum, and were 652-653 nm for the compounds of Examples 1 to 3 and 741 nm for the compound of Example 4. The light source was a copper vapour laser with an output of 10 to 12 watts (Cu 10 laser, Oxford Lasers Ltd) pumping a D2 10K dye laser (Oxford Lasers Ltd). The dye was rhodamine 640 (Applied Photophysics Ltd) for illumination at 652-653 nm and LDS-722 for illumination at 741 nm. Light intensity at the tumour surface was kept below 0.3 W cm^-2, where thermal effects were undetectable.
Twenty four hours after illumination […], 0.2 ml 1% Evans blue (Sigma) in saline was given intravenously and tumours were removed one hour later and fixed in formolsaline. The fixed tumours were sliced at right angles to the surface and the depth of necrosis measured with a dissecting microscope fitted with an eye piece graticule.

[2] = test system: Tumour; assay: Degree of tumour necrosis obtained at an equivalent muscle damage level; format: in vivo; details: for tumour necrosis for specified levels of muscle damage, in words: versus corresponding compounds of EP-A-0,186,962
Description: (§2) In preliminary tests the new compounds have shown similar results as regards skin sensitivity to those given in EP-A-0,186,962. Moreover, the para and meta dihydroxy compounds have been shown specifically, improved properties in other respects which may be expected in all the compounds.

[3] = Muscle oedema (muscle damage) for specified depths of tumour necrosis; format: in vivo; details: for muscle damage for specified levels of tumour necrosis, in words: versus corresponding compounds of EP-A-0,186,962
Description: as §2

[4] = Longest wavelength absorption peak in the red in fetal calf serum; format: physicochemical; details: in solutions of sensitiser in fetal calf serum
Description: as §1

[5] = at muscle oedema 10% increase in muscle weight
[6] = at muscle oedema 20% increase in muscle weight
[7] = at depth of tumour necrosis 3.0 mm
[8] = at depth of tumour necrosis 3.5 mm
[9] = at depth of tumour necrosis 4.0 mm
[10] = at depth of tumour necrosis 5.0 mm
[11] = at depth of tumour necrosis 5.5 mm

Row | SMILES | Tumour Necrosis [2, 5] | Tumour Necrosis [2, 6] [mm] | tumour necrosis for specified levels of muscle damage, in words [2] | Muscle Oedema (% Increase in Weight) [3, 7] [%] | Muscle Oedema (% Increase in Weight) [3, 8] [%] | muscle damage for specified levels of tumour necrosis, in words [3] | Muscle Oedema (% Increase in Weight) [3, 9] [%] | Muscle Oedema (% Increase in Weight) [3, 10] [%] | Muscle Oedema (% Increase in Weight) [3, 11] [%] | also measured
1 | Oc1ccc(-c2c3nc(c(-c4ccc(O)cc4)c4ccc([nH]4)c(-c4ccc(O)cc4)c4nc(c(-c5ccc(O)cc5)c5ccc2[nH]5)CC4)C=C3)cc1 [Example 1, 2,3-dihydro-5,10,15,20-tetra(p-hydroxyphenyl) porphyrin] | 3.5 mm | ~4.0 | more tumour necrosis than the corresponding compounds of EP-A-0,186,962 | 8 | 10 | considerably less muscle damage than the corresponding compounds of EP-A-0,186,962 | – | – | – | Depth of Tumour Necrosis ([1]; dose 3.125 μM/Kg i.p., 653 nm): 2.13 ± 0.50 mm; Depth of Tumour Necrosis ([1]; dose 6.25 μM/Kg i.p., 653 nm): 3.50 ± 0.54 mm
2 | Oc1cccc(-c2c3nc(c(-c4cccc(O)c4)c4ccc([nH]4)c(-c4cccc(O)c4)c4nc(c(-c5cccc(O)c5)c5[nH]c2CC5)C=C4)C=C3)c1 [Example 2, 2,3-dihydro-5,10,15,20-tetra(m-hydroxyphenyl) porphyrin] | 5.5-6 mm | 6.5 | more tumour necrosis than the corresponding compounds of EP-A-0,186,962 | – | 2 | considerably less muscle damage than the corresponding compounds of EP-A-0,186,962 | 3 | 5 | 7 | Depth of Tumour Necrosis ([1]; dose 0.375 μM/Kg i.p., 652 nm): 3.79 ± 0.28 mm; Depth of Tumour Necrosis ([1]; dose 0.75 μM/Kg i.p., 652 nm): 5.41 ± 0.39 mm
3 | Oc1ccccc1-c1c2nc(c(-c3ccccc3O)c3ccc([nH]3)c(-c3ccccc3O)c3nc(c(-c4ccccc4O)c4[nH]c1CC4)C=C3)C=C2 [Example 3, 2,3-dihydro-5,10,15,20-tetra (o-hydroxyphenyl) porphyrin] | – | – | – | – | – | – | – | – | – | Depth of Tumour Necrosis ([1]; dose 3.125 μM/Kg i.p., 652 nm): 3.69 ± 0.74 mm; Depth of Tumour Necrosis ([1]; dose 6.25 μM/Kg i.p., 652 nm): 4.16 ± 0.27 mm
4 | Oc1cccc(-c2c3nc(c(-c4cccc(O)c4)c4ccc([nH]4)c(-c4cccc(O)c4)c4nc(c(-c5cccc(O)c5)c5ccc2[nH]5)CC4)CC3)c1 [Example 4, 7,8,17,18-tetrahydro-5,10,15,20-tetra(m-hydroxyphenyl) porphyrin] | – | – | – | – | – | – | – | – | – | Depth of Tumour Necrosis ([1]; dose 0.39 μM/Kg i.p., 741 nm): 5.22 ± 1.21 mm; longest wavelength absorption peak in the red [4]: 741 nm
5 | Oc1cccc(-c2c3nc(c(-c4cccc(O)c4)c4ccc([nH]4)c(-c4cccc(O)c4)c4nc(c(-c5cccc(O)c5)c5ccc2[nH]5)C=C4)C=C3)c1 [Meta (Compounds of EP-A-0186962), 5,10,15,20-tetra(m-hydroxyphenyl) porphyrin, reference compound] | 3.5 mm | 4.0 | – | – | 10 | – | 20 | 36 | 49 | –
6 | Oc1ccc(-c2c3nc(c(-c4ccc(O)cc4)c4ccc([nH]4)c(-c4ccc(O)cc4)c4nc(c(-c5ccc(O)cc5)c5ccc2[nH]5)C=C4)C=C3)cc1 [Para (Compounds of EP-A-0186962), 5,10,15,20-Tetra(p-hydroxyphenyl)porphyrin, reference compound] | 2.25 mm | 3.0 | – | 20 | 22 | – | – | – | – | –

From patent US4992257A, “Dihydroporphyrins and method of treating tumors” (Efamol Holdings PLC, priority 1988, dated 1991)
